One may read the IC50 as the concentration at which inhibition is half-maximal.

For assay [1], the target named is T1, acetylcholinesterase of human erythrocyte origin (Homo sapiens, UniProt P22303).
T1 construct: Acetylcholinesterase of human erythrocyte origin (Sigma Chemical Co.); purchased Sigma Chemical Co; host or cells: human erythrocytes (natural source)
The assay is described as follows: Measurement of acetylcholinesterase-inhibiting action (acetylthiocholine / Ellman method), Experimental Example 1. The format is biochemical. The following applies: at least 3 experiments. As to the method: Acetylcholinesterase-inhibiting action of the compounds disclosed in Reference Examples was measured using acetylcholinesterase of human erythrocyte origin according to the acetylthiocholine method (Ellman method).
Acetylcholinesterase of human erythrocyte origin (Sigma Chemical Co.) was dissolved in distilled water at a concentration of 0.2 IU/mL to give an enzyme authentic sample. To a 96-well microplate was dispensed 20 μL of drug solution, 30 μL of 80 mM Tris-HCl (pH 7.4), 50 μL of enzyme authentic sample and 50 μL of 5 mM 5,5-dithio-bis(2-nitrobenzoic acid) (Sigma Chemical Co.), and the plate was shaken for 10 seconds. Then, 50 μL of acetylthiocholine iodide (Sigma Chemical Co.) was added, and the plate was again shaken. Immediately after shaking, increase of extinction at […] was measured at intervals of 30 seconds for 10 minutes. The enzyme activity was determined according to the following equation.
The experiment was repeated at least 3 times for each compound to obtain 50% inhibitory concentration (IC50). Moreover, in the same manner as mentioned above, acetylcholinesterase-inhibiting activity of distigmine was measured.
Background: Ellman's reagent forms a yellow product with free thiols.

In another assay the test system is urinary bladder. The experiment in a line: Potentiation effect for rhythmic contraction of urinary bladder in guinea pig, Experimental Example 2. It counts as in vivo, Hartley male guinea pigs. Particulars: Cavia porcellus, iv, read-out: AUC200 (mg/kg, i.v.). How it is done: Potentiation effect of the compounds disclosed in Reference Examples for rhythmic contraction of urinary bladder was examined using Hartley male guinea pigs. Hartley male guinea pigs (SLC) weighing about 300 g were anesthetized with urethane (1.2 g/kg, i.p.), held, and incised at the midline of abdomen to expose the bladder. The urethra was ligated, and a polyethylene tube (PE-50) was inserted into the bladder. The internal pressure of the bladder was measured with a blood pressure amplifier (Nippon Koden), and the data was collected on a personal computer through an A/D converter (MP-30, Biopac Systems). A proper amount of physiological saline was injected into the bladder through a cannula to induce rhythmic contraction of the to bladder.
The area (AUC) that is formed by a curve of the internal pressure of the bladder and a base line was calculated through analytical software (Studentlab pro 2.1.5, Biopac Systems) to evaluate the effect of the test compounds. The curve of the internal pressure is made based on the bladder contraction immediately before administration of the test compound and the first contraction 5 minutes after the administration. From the dose-dependent curve of AUC, the dose at which AUC before drug administration was increased 2 times (AUC200) was calculated to determine potency of contraction-enhancing effect of the test compounds for the muscle of urinary bladder. In addition, the potency of contraction-enhancing effect of […] for the muscle of bladder was determined in the same manner as mentioned above.

T1 sequence (P22303 32-617 isoform P22303-2 limits assumed): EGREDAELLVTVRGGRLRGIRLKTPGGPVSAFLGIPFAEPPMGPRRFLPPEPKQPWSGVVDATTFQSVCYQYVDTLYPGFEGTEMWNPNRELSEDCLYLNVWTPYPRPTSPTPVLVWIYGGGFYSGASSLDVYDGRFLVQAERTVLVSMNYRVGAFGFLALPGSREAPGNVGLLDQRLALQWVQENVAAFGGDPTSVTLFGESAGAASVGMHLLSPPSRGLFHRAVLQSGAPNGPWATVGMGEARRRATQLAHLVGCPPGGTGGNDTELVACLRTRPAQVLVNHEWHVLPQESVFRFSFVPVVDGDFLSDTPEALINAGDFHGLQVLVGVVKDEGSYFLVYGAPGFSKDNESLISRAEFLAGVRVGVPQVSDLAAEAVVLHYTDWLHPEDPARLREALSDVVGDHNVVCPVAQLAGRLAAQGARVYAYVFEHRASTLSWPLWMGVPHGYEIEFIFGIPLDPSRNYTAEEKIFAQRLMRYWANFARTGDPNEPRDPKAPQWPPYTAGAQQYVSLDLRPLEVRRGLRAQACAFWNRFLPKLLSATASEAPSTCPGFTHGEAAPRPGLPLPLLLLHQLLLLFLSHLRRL

In turn, `CN(CCCCCCN(C)C(=O)Oc1ccc[n+](C)c1)C(=O)Oc1ccc[n+](C)c1` [Distigmine, reference compound] had an IC50 in assay [1] of 723 nM. In addition, the ED (2-fold bladder contraction AUC) with urinary bladder was determined as 0.1 mg/kg.

Source of the values: US8252814B2, “Agents and crystals for improving excretory potency of urinary bladder” (priority 1998, dated 2012).
